pEC50, pIC50: −log10 of the molar value. Like-named read-outs stand apart in the source and are kept apart here.
Key:
[1] = system: MCF-7 breast cancer cells; test: MCF-7 cell growth inhibition; assay type: cell-based; settings: Homo sapiens, MCF7, 120 h; 5 days treatment, cell count vs DMSO
Method: At the end of treatment, surviving cells were counted and normalized to control cells that were treated with vehicle (DMSO) only. (B) IC50 values were obtained by deriving logarithmic curves from the %cell survival vs. treatment dose plot.

[2] = Drug concentrations in final plasma and tumor tissue of MCF-7 xenograft mice; assay type: in vivo; settings: female, Nu/Nu, mouse
Method: The plasma samples of 100 μL each were processed for analysis by a TSQ UPLC-MS/MS system. Aliquots of 10 μL of 0.5 ng/μl E-Tamoxifen-2C^13, N^15, 200 μL methanol, and 400 μl chloroform were added to the plasma in a 1.5 mL centrifuge tube in sequence. The sample was vortexed and stored at −20°C for 4 hours, followed by sonication in a Branson B3510MT Ultrasonic Cleaners for 30 min and centrifuged at 12000 RPM on a Heraeus Fresco 21 Refrigerated Micro Centrifuge from Thermo Fisher Scientific for 10 min. The supernatant was dried with a nitrogen gas flow and suspended in 100 μL methanol. Aliquots of 10 μL of the above processed samples were injected into a TSQ Vantage mass spectrometer connected with a heated electrospray ionization probe and a Dionex Ultimat 3000 UHPLC with a Hypersil gold column (50×2.1 mm). The probe setting and front mass spectrometer setting were controlled as follows: spray voltage 3200 voltage, auxiliary gas 10psi, vaporizer temperature 365°C, capillary temperature 300°C, sheath gas 30psi, S-lens RF amplitude 51 voltage. The flow gradient was started with initial 30% mobile phase A of water with 0.05% formic acid to 1 min, to 100% mobile phase B of acetonitrile with 0.05% formic acid at 8 min, and return to 30% mobile phase A at 13 min.

[3] = system: T47D/Y537S breast cancer cells; test: T47D/Y537S ESR1 mutant cell growth inhibition; assay type: cell-based; settings: Homo sapiens, 120 h, 5 days treatment
From the text: Wild-type ESR1, the Y537S ESR1 mutant were fused to a FLAG tag at their C-termini and cloned into the lentiviral vector pFLRu-FH [30]. Y537S mutation was first introduced into ESR1 using the QuikChange II XL Site-Directed Mutagenesis Kit (Agilent) with an ESR1-encoding plasmid (Accession number NM_000125.1, GeneCopoeia Inc.) as the template. […] To make lentiviral particles, pFLRu-FH vector DNAs (encoding ESR1(wt) and ESR1(Y537S)) were cotransfected with the packaging plasmids into HEK293T cells using Fugene 6 (Roche). At 48 hours post transfection, culture media containing different viruses were added to T47D cells in the presence of polybrene followed by 3-day puromycin selection for stable expression.
Viable cell numbers were counted with a Z Series Coulter Counter instrument (Beckman-Coulter) following manufacturer's instructions. […] IC50 values were obtained from dose-response curves for all treatments.

[4] = set-up: method as in PMID 27529700; settings: after ZB716 dosing; cited from earlier work
ERα = system: ERα; set-up: method as in PMID 27529700; settings: read-out: binding affinity to ERα, EC50; cited from earlier work
ERα LBD = biological target: T1, ERα LBD (Homo sapiens, UniProt P03372); test: MARCoNI ERα-coregulator interaction peptide microarray; assay type: biochemical; settings: 10 μM compound, 7 nM GST-tagged ERα LBD, vs apo
T1 construct: using 7 nM GST-tagged ERα LBD (Invitrogen); purchased Invitrogen
T1 sequence (P03372 311-547 limits assumed): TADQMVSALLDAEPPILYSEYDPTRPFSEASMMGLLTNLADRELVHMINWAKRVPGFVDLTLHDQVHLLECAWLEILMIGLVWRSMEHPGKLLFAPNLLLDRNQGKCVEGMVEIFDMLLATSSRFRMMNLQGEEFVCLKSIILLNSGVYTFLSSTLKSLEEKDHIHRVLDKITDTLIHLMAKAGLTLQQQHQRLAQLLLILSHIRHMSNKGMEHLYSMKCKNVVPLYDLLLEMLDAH
Method: The modulation of ERα-coregulator interaction by compound was analyzed using MARCoNI (Micro Array Assay for Real-time Coregulator Nuclear receptor Interaction) as described previously using 7 nM GST-tagged ERα LBD (Invitrogen).
Each condition is measured using 3 technical replicates (arrays). After incubation, unbound receptor is removed by washing, and a tiff image of each array is acquired using a CCD camera and receptor binding to each peptide on the array is quantified using dedicated software. For each condition, the three technical replicates are used to calculate mean and S.E.M. ERα binding as well as compound-induced log-fold modulation vs. control for each individual motif. Significance of the modulation is assessed using Student's t-Test.

## C[C@]12CC[C@@H]3c4ccc(O)cc4C[C@@H](CCCCCCCCC[S+]([O-])CCCC(F)(F)C(F)(F)F)[C@H]3[C@@H]1CC[C@@H]2O (some centres unmarked) [fulvestrant, reference compound]
[1]
  pIC50: 8.82
[2]; plasma, subcutaneous, 200 mg/kg/wk, read-out: Average concentration in final plasma
  concentration at 3 weeks: 27.9 ng/mL
[2]; plasma, treatment ZB716 10 mg/kg daily PO, end of study, read-out: Average concentration in final plasma
  concentration at 3 weeks: 18.4 ng/mL
[2]; plasma, treatment ZB716 30 mg/kg daily PO, end of study, read-out: Average concentration in final plasma
  concentration at 3 weeks: 145 ng/mL
[2]; tumor tissue, subcutaneous, 200 mg/kg/wk, read-out: Average concentration in tumor tissue
  concentration at 3 weeks: 160 ng/mL
[2]; tumor tissue, treatment ZB716 10 mg/kg daily PO, end of study, read-out: Average concentration in tumor tissue
  concentration at 3 weeks: 67.9 ng/mL
[2]; tumor tissue, treatment ZB716 30 mg/kg daily PO, end of study, read-out: Average concentration in tumor tissue
  concentration at 3 weeks: 118 ng/mL
[3]
  pIC50: 7.49
[4]
  share of total active ingredients in mice plasma (active metabolite of ZB716): 10-20%
ERα
  pEC50: […]
ERα LBD
  modulation of ERα interaction with coactivator motifs (NCOA family): strongly reduced

From PMC5805526, “ZB716, a steroidal selective estrogen receptor degrader (SERD), is orally efficacious in blocking tumor growth in mouse xenograft models” (Oncotarget, 2018)
